Results published in PubChem BioAssay AID330 (DTP/NCI, 2004).
Inconclusive results and toxic doses are left out. The calls were made as follows: active = survival T/C of 150% or more; inactive = T/C below 125% in these data.

Test system: P388 leukemia ip, CD2F1 mice, survival T/C
Assay: NCI In Vivo Anticancer Drug Screen. Data for tumor model P388 Leukemia (intraperitoneal) in CD2F1 (CDF1) mice
Details: endpoint: median survival time, higher = longer survival
How it was run: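 Mice carrying the transplanted tumor received test compound or vehicle. Survival was recorded in each group, and the value is the treated-group measurement divided by that of the vehicle-treated control group.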

[1] = dose: 12.5 mg/kg/injection, schedule: Q01DX009 (ip), vehicle: saline
[2] = dose: 25.0 mg/kg/injection, schedule: Q01DX009 (ip), vehicle: saline
[3] = dose: 50.0 mg/kg/injection, schedule: Q01DX009 (ip), vehicle: saline
[4] = dose: 60.0 mg/kg/injection, schedule: Q01DX005 (ip), vehicle: saline with Tween-80
[5] = dose: 120.0 mg/kg/injection, schedule: Q01DX005 (ip), vehicle: saline with Tween-80
[6] = dose: 240.0 mg/kg/injection, schedule: Q01DX005 (ip), vehicle: saline with Tween-80
[7] = dose: 100.0 mg/kg/injection, schedule: Q01DX009 (ip), vehicle: saline
[8] = dose: 200.0 mg/kg/injection, schedule: Q01DX009 (ip), vehicle: saline
[9] = dose: 50.0 mg/kg/injection, schedule: Q01DX005 (ip), vehicle: Klucel (hydroxypropylcellulose) (HPC)
[10] = dose: 100.0 mg/kg/injection, schedule: Q01DX005 (ip), vehicle: Klucel (hydroxypropylcellulose) (HPC)
[11] = dose: 200.0 mg/kg/injection, schedule: Q01DX005 (ip), vehicle: Klucel (hydroxypropylcellulose) (HPC)

Measured: T/C

CC(C)[CH2][Pb]([CH2]C(C)C)([CH2]C(C)C)[n]1ccnc1
inactive: dose: 3.12 mg/kg/injection, schedule: Q01DX009 (ip), vehicle: saline 101 % of control | dose: 6.25 mg/kg/injection, schedule: Q01DX009 (ip), vehicle: saline 108 % of control | [1] 111 % of control

CC(=O)N/C(=C/c1ccccc1)C(=O)N1CCCC1C(=O)O (stereo unspecified)
inactive: [1] 105 % of control | [2] 104 % of control | [3] 96 % of control

C[C@@H]1CC[C@]2(C)CC[C@]3(C)C(=CC[C@@H]4[C@@]5(C)CC[C@@H](OC(=O)c6ccc(O)cc6)C(C)(C)[C@@H]5C[C@H](O)[C@]43C)[C@@H]2[C@H]1C(=O)O
active: dose: 0.2 mg/kg/injection, schedule: Q01DX009 (ip), vehicle: saline with Tween-80 159 % of control | dose: 400.0 micrograms/kg/injection, schedule: Q01DX009 (ip), vehicle: saline with Tween-80 163 % of control
inactive: dose: 12.5 micrograms/kg/injection, schedule: Q01DX009 (ip), vehicle: saline with Tween-80 117 % of control | dose: 25.0 micrograms/kg/injection, schedule: Q01DX009 (ip), vehicle: saline with Tween-80 117 % of control | dose: 50.0 micrograms/kg/injection, schedule: Q01DX009 (ip), vehicle: saline with Tween-80 118 % of control

CC(C)Cc1ncc(CC(C)C)n(O)c1=O
inactive: dose: 12.5 mg/kg/injection, schedule: Q01DX005 (ip), vehicle: distilled water + Tween-80 95 % of control | dose: 25.0 mg/kg/injection, schedule: Q01DX005 (ip), vehicle: distilled water + Tween-80 103 % of control | dose: 50.0 mg/kg/injection, schedule: Q01DX005 (ip), vehicle: distilled water + Tween-80 101 % of control | dose: 100.0 mg/kg/injection, schedule: Q01DX005 (ip), vehicle: distilled water + Tween-80 100 % of control

COc1ccc2c(oc(=O)c3c(Cl)nc(C)c(C)c32)c1OC
inactive: dose: 12.5 mg/kg/injection, schedule: Q01DX009 (ip), vehicle: Klucel (hydroxypropylcellulose) (HPC) 98 % of control | dose: 12.5 mg/kg/injection, schedule: Q04DX003 (ip), vehicle: Klucel (hydroxypropylcellulose) (HPC) 100 % of control | dose: 25.0 mg/kg/injection, schedule: Q01DX009 (ip), vehicle: Klucel (hydroxypropylcellulose) (HPC) 98 % of control | dose: 25.0 mg/kg/injection, schedule: Q04DX003 (ip), vehicle: Klucel (hydroxypropylcellulose) (HPC) 102 % of control | dose: 50.0 mg/kg/injection, schedule: Q01DX009 (ip), vehicle: Klucel (hydroxypropylcellulose) (HPC) 98 % of control | dose: 50.0 mg/kg/injection, schedule: Q04DX003 (ip), vehicle: Klucel (hydroxypropylcellulose) (HPC) 94 % of control | dose: 100.0 mg/kg/injection, schedule: Q01DX009 (ip), vehicle: Klucel (hydroxypropylcellulose) (HPC) 97 % of control | dose: 100.0 mg/kg/injection, schedule: Q04DX003 (ip), vehicle: Klucel (hydroxypropylcellulose) (HPC) 90 % of control | dose: 200.0 mg/kg/injection, schedule: Q01DX009 (ip), vehicle: Klucel (hydroxypropylcellulose) (HPC) 97 % of control | dose: 200.0 mg/kg/injection, schedule: Q04DX003 (ip), vehicle: Klucel (hydroxypropylcellulose) (HPC) 90 % of control

CCc1cccc(C)c1NC(=O)C(=O)CC(=O)c1ccc(Cl)cc1Cl
inactive: [4] 114 % of control | [5] 116 % of control | [6] 113 % of control

CN(C)CCCNc1cccc2c1C(=O)c1c(NCCCN(C)C)cccc1C2=O
inactive: dose: 3.75 mg/kg/injection, schedule: Q01DX009 (ip), vehicle: saline 99 % of control | dose: 7.5 mg/kg/injection, schedule: Q01DX009 (ip), vehicle: saline 105 % of control | dose: 12.5 mg/kg/injection, schedule: Q01DX009 (ip), vehicle: water 98 % of control | dose: 15.0 mg/kg/injection, schedule: Q01DX009 (ip), vehicle: saline 106 % of control | dose: 25.0 mg/kg/injection, schedule: Q01DX009 (ip), vehicle: water 95 % of control | dose: 30.0 mg/kg/injection, schedule: Q01DX009 (ip), vehicle: saline 96 % of control | dose: 60.0 mg/kg/injection, schedule: Q01DX009 (ip), vehicle: saline 90 % of control

N#CCCP(=O)(O)CO
inactive: [3] 106 % of control | [7] 100 % of control | [8] 92 % of control

CCN(CC)CCSC1CC2CC(C1C)C2(C)C (stereo unspecified)
inactive: [9] 99 % of control | [10] 109 % of control | [11] 104 % of control

Cc1ccc[c]([Hg][Cl])c1N=Nc1ccccc1
inactive: dose: 9.5 mg/kg/injection, schedule: Q01DX009 (ip), vehicle: saline with Tween-80 118 % of control | dose: 19.0 mg/kg/injection, schedule: Q01DX009 (ip), vehicle: saline with Tween-80 110 % of control

Cc1c(-c2ccccc2)nc2sccn12
inactive: [2] 102 % of control | [3] 102 % of control | [7] 96 % of control

O=C(Nc1cc(Cl)cc(Cl)c1)OC1CC2CC1C1CC3OC3C21 (stereo unspecified)
inactive: [9] 94 % of control | [10] 99 % of control | [11] 92 % of control

CC(CSc1ccccc1)C(Sc1ccccc1)Sc1ccccc1 (stereo unspecified)
inactive: [3] 102 % of control | [7] 98 % of control | [8] 106 % of control

Nc1noc(N)n1
inactive: dose: 50.0 mg/kg/injection, schedule: Q01DX005 (ip), vehicle: saline 107 % of control | dose: 100.0 mg/kg/injection, schedule: Q01DX005 (ip), vehicle: saline 110 % of control | dose: 200.0 mg/kg/injection, schedule: Q01DX005 (ip), vehicle: saline 124 % of control

CCN(CC)CCCC(C)Nc1ccc2ccc(Cl)cc2n1 (stereo unspecified)
inactive: dose: 50.0 mg/kg/injection, schedule: Q01DX005 (ip), vehicle: saline + Tween-80 + alcohol 101 % of control | dose: 100.0 mg/kg/injection, schedule: Q01DX005 (ip), vehicle: saline + Tween-80 + alcohol 101 % of control | dose: 200.0 mg/kg/injection, schedule: Q01DX005 (ip), vehicle: saline + Tween-80 + alcohol 100 % of control

CC1(C)SC(C)(c2ccco2)N(c2nccs2)C1=O (stereo unspecified)
inactive: dose: 60.0 mg/kg/injection, schedule: Q01DX005 (ip), vehicle: Klucel (hydroxypropylcellulose) (HPC) 104 % of control | dose: 120.0 mg/kg/injection, schedule: Q01DX005 (ip), vehicle: Klucel (hydroxypropylcellulose) (HPC) 104 % of control

CCOC(=O)Nc1nc2ccccc2n1CN1CCCC1
inactive: dose: 25.0 mg/kg/injection, schedule: Q01DX005 (ip), vehicle: Klucel (hydroxypropylcellulose) (HPC) 112 % of control | [9] 111 % of control | [10] 114 % of control | [11] 117 % of control

CC(CC/C=C/CO)C1CC(OS(=O)(=O)O)C2(O)C1(C)CCC1C3CCC(O)C(O)C3C(O)CC12O (stereo unspecified)
inactive: dose: 5.0 mg/kg/injection, schedule: Q01DX005 (ip), vehicle: Klucel (hydroxypropylcellulose) (HPC) 100 % of control | dose: 10.0 mg/kg/injection, schedule: Q01DX005 (ip), vehicle: Klucel (hydroxypropylcellulose) (HPC) 106 % of control | dose: 20.0 mg/kg/injection, schedule: Q01DX005 (ip), vehicle: Klucel (hydroxypropylcellulose) (HPC) 98 % of control | dose: 40.0 mg/kg/injection, schedule: Q01DX005 (ip), vehicle: Klucel (hydroxypropylcellulose) (HPC) 95 % of control

COc1ccc(NC(=O)CCCC(=O)CC(=O)c2ccc(Cl)cc2)c(OC)c1
inactive: [4] 109 % of control | [5] 103 % of control | [6] 101 % of control

CCCCCCCCOCC(=O)O
inactive: dose: 50.0 mg/kg/injection, schedule: Q01DX009 (ip), vehicle: saline with Tween-80 107 % of control | dose: 100.0 mg/kg/injection, schedule: Q01DX009 (ip), vehicle: saline with Tween-80 94 % of control | dose: 200.0 mg/kg/injection, schedule: Q01DX009 (ip), vehicle: saline with Tween-80 96 % of control

O=C(NCCCl)Nc1[nH]c(=O)ncc1Br
inactive: [4] 104 % of control | [5] 102 % of control | [6] 112 % of control

O=C(NCCCl)Nc1[nH]c(=O)ncc1I
inactive: dose: 1.88 mg/kg/injection, schedule: Q01DX005 (ip), vehicle: saline with Tween-80 101 % of control | dose: 3.75 mg/kg/injection, schedule: Q01DX005 (ip), vehicle: saline with Tween-80 101 % of control | dose: 7.5 mg/kg/injection, schedule: Q01DX005 (ip), vehicle: saline with Tween-80 100 % of control | [4] 95 % of control

COC(=O)C1=NNC(C(=O)OC)=NN1
inactive: dose: 25.0 mg/kg/injection, schedule: Q01DX009 (ip), vehicle: other 87 % of control | dose: 50.0 mg/kg/injection, schedule: Q01DX009 (ip), vehicle: other 106 % of control | dose: 100.0 mg/kg/injection, schedule: Q01DX009 (ip), vehicle: other 98 % of control | dose: 200.0 mg/kg/injection, schedule: Q01DX009 (ip), vehicle: other 106 % of control | dose: 400.0 mg/kg/injection, schedule: Q01DX009 (ip), vehicle: other 103 % of control
